From article PMC10363981, “Optimizing the enzymatic release of MMAE from isoDGR-based small molecule drug conjugate by incorporation of a GPLG-PABC enzymatically cleavable linker” (Frontiers in Pharmacology, 2023)
“And” between values parts separate entries of the source, which are not always exact repeats. Equal entries are not always repeated. *1 amine or outer side, *2 acyl side, *3 side chain or, on linkers, in order; H or OH if unused. Where a SMILES comes first, the peptide text is derived from it. [ ]: non-standard residue; d: D form. The star is where a group is joined. Dolaproine = CO[C@@H]([C@@H]1CCCN1)[C@@H](C)C(=O)O; Dil = CC[C@H](C)[C@H](NC)[C@@H](CC(=O)O)OC; PABC = O=C(OCc1ccc(N[*:1])cc1)[*:2]; X1 = C[C@@H](N*)[C@@H](O)c1ccccc1; NMeV = CN[C@H](C(=O)O)C(C)C

What was measured:
[1] = test system: A549 human lung cancer cells; test: In vitro antiproliferative activity, MTT, 72 h continuous treatment (no-washout); format: cell-based; settings: MTT, 72 h continuous treatment, no washout, 5% serum final; αVβ3 low expressing line; triplicate, repeated three times
Experimental: (§1) U87MG human malignant glioma, SK-MEL-28 human melanoma, SK-OV-3 human ovarian cancer, and A549 human lung cancer cell lines were purchased from ATCC. The cells were cultured in Dulbecco’s Modified Eagle’s Medium (DMEM; Biosera, Nuaille, France), supplemented with 10% heat-inactivated Fetal Bovine Serum (FBS; Biosera), and with 1% Penicillin/Streptomycin (Biosera). Cells were cultured in sterile T75 flasks with ventilation cap (Sarstedt, Nümbrecht, Germany) at 37 °C in a humidified atmosphere with 5% CO2 in ESCO CelCulture Incubator (ESCO, Friedberg, Germany). Manipulations with the cells were performed in biosafety cabinet (laminar) ESCO Sentinel Gold class II model AC2-4E8 (ESCO).
(§2) After standard trypsinization and harvesting cells by trypsin (Biosera), ethylenediaminetetraacetic acid (EDTA; Biosera) and PBS solution, 6×10^3 cells per well were seeded in serum containing (10%) growth medium to 96-well plates with flat bottom (Eppendorf, Hamburg, Germany), in a 100 μL volume per well, and incubated at 37°C.
(§3) In the wash out experiment, cells were incubated with the compounds (5% serum final) for 30 min, then they were washed out, and additionally incubated in growth medium (5% serum final) up to 72 h. The control wells were treated only with serum free medium (5% serum final).
(§4) For the evaluation of the in vitro antiproliferative activity of compounds, the cell viability was determined by MTT assay (3-(4,5-dimethylthiazol-2-yl)-2,5-diphenyl-tetrazolium bromide) obtained from Duchefa Biochemie (Haarlem, Netherlands).
(§5) 22 µL of MTT solution (5 mg/mL in PBS, 0.5 mg/mL final) was added to each well and after 2 h incubation at 37°C, the supernatant was removed. […] Average background absorbance (DMSO-Ethanol) was subtracted from absorbance values of control and treated wells, and cell viability was determined relative to untreated (control) wells where cell viability was arbitrarily set to 100%. […] The experiments were done in triplicate and each experiment was repeated three times.

[2] = test system: SK-OV-3 human ovarian cancer cells; test: as above; format: cell-based; settings: MTT, 72 h continuous treatment, no washout, 5% serum final; triplicate, repeated three times
Experimental: as §1, §2, §3, §4, §5

[3] = test system: A549 human lung cancer cells; test: In vitro antiproliferative activity, "kiss-and-run" washout experiment (30 min + washout + up to 72 h); format: cell-based; settings: MTT, 30 min treatment, washout, further incubation up to 72 h, 5% serum final; αVβ3 low expressing line
Experimental: as §1, §2, §3, §4, §5
(§6) Recently, a new protocol for evaluating the antiproliferative activity and the targeting ability of integrin-ligand based conjugates was developed by the group of Prof. […] In this procedure, which we named “kiss-and-run” experiment, after very short initial contact times (15–30 min) of the toxin with the cells in vitro, the solution is drained, and cells are resuspended in the culture medium for a 72 h incubation. This protocol is aimed at simulating the rapid clearance of the drugs that occurs in vivo in the extracellular tumor environment, thus highlighting the ability of the conjugate to bind the integrin receptor on the cell surface.

[4] = test system: SK-MEL-28 human melanoma cells; test: as above; format: cell-based; settings: MTT, 30 min treatment, washout, further incubation up to 72 h, 5% serum final
Experimental: as §1, §2, §3, §4, §5, §6

[5] = test system: SK-OV-3 human ovarian cancer cells; test: as above; format: cell-based; settings: MTT, 30 min treatment, washout, further incubation up to 72 h, 5% serum final
Experimental: as §1, §2, §3, §4, §5, §6

[6] = test system: U87MG human malignant glioma cells; test: as above; format: cell-based; settings: MTT, 30 min treatment, washout, further incubation up to 72 h, 5% serum final
Experimental: as §1, §2, §3, §4, §5, §6

SK-OV-3 cells = test: In vitro antiproliferative activity in the presence of MMP-2 inhibitor; format: cell-based, human; settings: 16 h pre-incubation with MMP-2 inhibitor 10 µM, then 72 h continuous treatment, 5% serum final; average ± SD, triplicate; read-out: IC50 MMP-2 inhibitor + Treatment 72 h SK-OV-3 (αVβ3 +)
Experimental: as §4
(§7) 22 µL of MTT solution (5 mg/mL in PBS, 0.5 mg/mL final) was added to each well and after 2 h incubation at 37°C, the supernatant was removed. The precipitated purple formazan crystals were dissolved in 100 µL of a 1:1 solution of dimethylsulfoxide (DMSO; Merck, St. Louis, MO, United States): 96% Ethanol (Molar Chemicals Kft., Halásztelek, Hungary) and the absorbance was measured after 15 min at λ = 570 nm by using microplate reader CLARIOstar Plus (BMG Labtech, Ortenberg, Germany). Average background absorbance (DMSO-Ethanol) was subtracted from absorbance values of control and treated wells, and cell viability was determined relative to untreated (control) wells where cell viability was arbitrarily set to 100%. Absorbance values of treated samples were normalized versus untreated control samples and interpolated by nonlinear regression analysis with GraphPad Prism 6 software (GraphPad, La Jolla, San Diego, CA, United States) to generate sigmoidal dose-response curves from which the 50% inhibitory concentration (IC50) values of the compounds were calculated and presented as nanomolar (nM) units. The experiments were done in triplicate and each experiment was repeated three times.
(§8) The conjugate 2 and the free MMAE were tested in presence of the MMP-2 inhibitor cis-9-octadecenoyl-N-hydroxylamine (Merck) dissolved in DMSO ([You et al., 2018]). The three αVβ3 integrin and MMP-2 overexpressing cancer cell lines (U87MG, SK-MEL-28, […]) were seeded with serum containing medium ([Ellijimi et al., 2018]; [Shim et al., 2019]) and, after 8 h, were washed-out. Then, 100 µL per well of MMP-2 inhibitor (10 µM final concentration) were added and cells were incubated for 16 h, prior to the treatment. Later, the conjugate 2 and free MMAE were dissolved in 10% serum containing medium and added to reach the same concentrations evaluated in the previous test in a final volume of 100 µL per well and incubated (5% serum final) continuously for 72 h of the treatment. The experiments were performed in triplicate.

U87MG cells = test: as above; format: cell-based, human; settings: 16 h pre-incubation with MMP-2 inhibitor 10 µM, then 72 h continuous treatment, 5% serum final; average ± SD, triplicate; read-out: IC50 MMP-2 inhibitor + Treatment 72 h U87MG (αVβ3 +)
Experimental: as §4, §7, §8

SK-MEL-28 cells = test: as above; format: cell-based, human; settings: 16 h pre-incubation with MMP-2 inhibitor 10 µM, then 72 h continuous treatment, 5% serum final; average ± SD, triplicate; read-out: IC50 MMP-2 inhibitor + Treatment 72 h SK-MEL-28 (αVβ3 +)
Experimental: as §4, §7, §8

[7] = test system: SK-MEL-28 human melanoma cells; test: In vitro antiproliferative activity, MTT, 72 h continuous treatment (no-washout); format: cell-based; settings: MTT, 72 h continuous treatment, no washout, 5% serum final; triplicate, repeated three times
Experimental: as §1, §2
(§9) […] The control wells were treated only with serum free medium (5% serum final).
as §4, §5

[8] = test system: U87MG human malignant glioma cells; test: as above; format: cell-based; settings: MTT, 72 h continuous treatment, no washout, 5% serum final; triplicate, repeated three times
Experimental: as §1, §2, §9, §4, §5

[9] = target: T1, recombinant human MMP-2 protein (Active) (Homo sapiens, UniProt P08253); test: Enzymatic-cleavage assay with MMP-2 enzyme; format: in vitro ADME; settings: recombinant human MMP-2, enzyme:linker 1:20 (w/w), Tris·HCl buffer pH 7.4, 37 °C, 74 h, HPLC-UV 254 nm, by retention time vs free MMAE
T1 construct: with the active form of MMP-2 enzyme; purchased Abcam ab81550
T1 sequence (P08253 110-660): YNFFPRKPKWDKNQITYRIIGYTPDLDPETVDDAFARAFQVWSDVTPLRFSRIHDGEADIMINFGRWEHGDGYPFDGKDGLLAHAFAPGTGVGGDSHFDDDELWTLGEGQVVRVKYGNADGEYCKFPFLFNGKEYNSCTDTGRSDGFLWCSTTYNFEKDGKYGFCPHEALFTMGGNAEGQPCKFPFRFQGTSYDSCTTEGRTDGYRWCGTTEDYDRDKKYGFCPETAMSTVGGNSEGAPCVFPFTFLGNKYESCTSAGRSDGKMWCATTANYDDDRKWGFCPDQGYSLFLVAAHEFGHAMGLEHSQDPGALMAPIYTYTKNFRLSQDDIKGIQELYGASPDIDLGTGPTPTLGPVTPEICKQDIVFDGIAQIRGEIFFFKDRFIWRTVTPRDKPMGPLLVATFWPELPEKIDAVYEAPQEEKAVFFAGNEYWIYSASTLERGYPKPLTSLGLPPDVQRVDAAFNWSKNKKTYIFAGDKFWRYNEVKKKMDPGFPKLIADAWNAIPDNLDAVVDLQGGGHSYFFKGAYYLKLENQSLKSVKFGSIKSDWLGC
Experimental: The cleavage test with the MMP-2 enzyme was performed using recombinant human MMP-2 protein (Active) purchased from Abcam (ab81550). A buffer solution Tris∙HCl (50 mM), NaCl (0.2 M), CaCl2 (10 mM), Brij-35 (0.05%), ZnSO4 (50 µM), pH 7.4 was prepared in accordance with the literature ([Tauro et al., 2008]). A solution of EDTA (50 mM) was prepared for stopping the MMP-2 activity. For the assay, the MMP-2 enzyme (10 µg) was diluted with 100 µL Milli-Q Water, accordingly to the data sheet. A solution of the H2N-GPLG-PABC-MMAE 7 was prepared (0.105 mg in 0.881 mL of buffer solution). To start the assay, 25 µL MMP-2 enzyme was added to 475 µL of the linker solution to have 1:20 (w/w) enzyme: linker ratio. […] The resulting solution was diluted with 180 µL Milli-Q Water and 70 µL of acetonitrile (MeCN) and analyzed by analytical HPLC SHIMADZU LC-20AP equipped with diode array UV detector and LiChrosorb RP-18 (5 μm) C18 column. […]
Samples were analyzed using analytical HPLC SHIMADZU LC -20AP equipped with diode array UV detector and LiChrosorb® RP-18 (5 μm) C18 column, flow rate: 1 mL/min., gradient: from 90% (H2O + 0.1% TFA) / 10% (MeCN) to 40% (H2O + 0.1% TFA) / 60% (MeCN) in 16 min. to 10% (H2O + 0.1% TFA) / 90% (MeCN) in 9 min. to 10% (H2O + 0.1% TFA) / 90% (MeCN) in 5 min. to 90% (H2O + 0.1% TFA) / 10% (MeCN) in 5 min. to 90% (H2O + 0.1% TFA) / 10% (MeCN) in 5 min. […]

SMILES | IC50 [1] [nM] | IC50 [2] | IC50 [3] [nM] | IC50 [4] [nM] | IC50 [5] [nM] | IC50 [6] [nM] | IC50 (SK-OV-3 cells) [nM] | IC50 (U87MG cells) [nM] | IC50 (SK-MEL-28 cells) [nM] | IC50 [7] [nM] | IC50 72h SK-MEL-28 [7] | IC50 [8] [nM] | release of free MMAE on incubation with active MMP-2 [9]
CC[C@H](C)[C@@H]([C@@H](CC(=O)N1CCC[C@H]1[C@H](OC)[C@@H](C)C(=O)N[C@H](C)[C@@H](O)c1ccccc1)OC)N(C)C(=O)[C@@H](NC(=O)[C@@H](NC)C(C)C)C(C)C [MMAE, monomethyl auristatin E] (H-[NMeV]V[Dil][Dolaproine]-X1) | 0.0688 ± 0.0021 | 0.03 nM and 0.0307 nM | 266 ± 16.1 | 1400 ± 137 | 206 ± 23.6 | 2130 ± 216 | 0.0334 ± 0.0119 | 0.374 ± 0.132 | 1.9 ± 0.778 | 2.39 ± 0.395 | very low nanomolar range | 0.225 ± 0.0126 | 
CCCCCCCC/C=C\CCCCCCCC(=O)NO [MMP-2 Inhibitor, cis-9-octadecenoyl-N-hydroxylamide] |  |  |  |  |  |  | > 20000 | > 20000 | > 20000 |  |  |  | 
CC[C@H](C)[C@@H]([C@@H](CC(=O)N1CCC[C@H]1[C@H](OC)[C@@H](C)C(=O)N[C@H](C)[C@@H](O)c1ccccc1)OC)N(C)C(=O)[C@@H](NC(=O)[C@H](C(C)C)N(C)C(=O)OCc1ccc(NC(=O)CNC(=O)[C@H](CC(C)C)NC(=O)[C@@H]2CCCN2C(=O)CN)cc1)C(C)C [compound 7, H2N-GPLG-PABC-MMAE] (H-GPLG[PABC][NMeV]V[Dil][Dolaproine]-X1) |  |  |  |  |  |  |  |  |  |  |  |  | not observed
N=C(N)NCCC[C@@H]1NC(=O)CNC(=O)C[C@@H](C(=O)O)NC(=O)C[C@H]2NC(=O)[C@H](CNC1=O)N(Cc1ccccc1)C2=O [compound 10, cyclo[DKP-isoDGR], reference compound] |  |  | > 20000 | > 20000 | > 20000 | > 20000 |  |  |  |  |  |  | 
